Values joined by “and” are separate entries in the source; they are usually repeats but may differ in a detail not shown here. Identical values can stand only once. Like-named read-outs stand apart in the source and are kept apart here.
What was measured:
Assay type in all cases: cell-based
[1] = system: Salmonella spp. 017; test: Ex.4 colony coloration, 5-bromo-3-indolyl nonanoate, DMSO/Tween 20, MacConkey; set-up: key to color: —: absence of colour or intensity
[2] = system: Salmonella enteritidis 006; test: as above
[3] = system: Salmonella typhi 118; as to intensity of coloration: key: 0: no activity; 0.1: trace of coloration; 0.5: very pale coloration; 1: distinct coloration of low intensity; 2: clear coloration of medium intensity; 3: intense coloration; 4: very intense coloration
[4] = system: Salmonella arizonae 018; test: Ex.4 colony coloration, 5-bromo-3-indolyl nonanoate, DMSO/Tween 20, MacConkey; as to intensity of coloration: key: 0: no activity; 0.1: trace of coloration; 0.5: very pale coloration; 1: distinct coloration of low intensity; 2: clear coloration of medium intensity; 3: intense coloration; 4: very intense coloration
[5] = system: Escherichia coli 002; test: as above; set-up: key: —: absence of colour or intensity
[6] = system: Hafnia alvei 025; test: as above; set-up: key: —: absence of colour or intensity
[7] = system: bacterial species exhibiting esterase activity; test: Ex.4 overall conclusion, colony coloration; conditions: experimental conditions of Example 4
Text: This medium is then separated into eight portions.

**Q.** CCCCC(CC)COS(=O)(=O)[O-].[Na+] (centres unmarked) [Tergitol 8] was tested. Which color ([1]; 2 ml/l Tergitol 8, 24 h) did it give?
**A.** gray

**Q.** What about the intensity of coloration ([1]; 2 ml/l Tergitol 8, 24 h) of the same compound?
**A.** 0.5

**Q.** What about the color ([1]; 2 ml/l Tergitol 8, 48 h) of the same compound?
**A.** gray

**Q.** And the intensity of coloration ([1]; 2 ml/l Tergitol 8, 48 h)?
**A.** 1.5

**Q.** What about the color ([1]; 4 ml/l Tergitol 8, 24 h) of the same compound?
**A.** gray

**Q.** And the intensity of coloration ([1]; 4 ml/l Tergitol 8, 24 h)?
**A.** 0.3

**Q.** And the color ([1]; 4 ml/l Tergitol 8, 48 h)?
**A.** gray

**Q.** What about the intensity of coloration ([1]; 4 ml/l Tergitol 8, 48 h) of the same compound?
**A.** 1

**Q.** What about the color ([1]; 8 ml/l Tergitol 8, 24 h) of the same compound?
**A.** —

**Q.** What about the color ([1]; 8 ml/l Tergitol 8, 48 h) of the same compound?
**A.** gray

**Q.** And the intensity of coloration ([1]; 8 ml/l Tergitol 8, 48 h)?
**A.** 0.5

**Q.** And the color ([2]; 2 ml/l Tergitol 8, 24 h)?
**A.** gray

**Q.** And the intensity of coloration ([2]; 2 ml/l Tergitol 8, 24 h)?
**A.** 3

**Q.** And the color ([2]; 2 ml/l Tergitol 8, 48 h)?
**A.** gray

**Q.** And the intensity of coloration ([2]; 2 ml/l Tergitol 8, 48 h)?
**A.** 4

**Q.** And the color ([2]; 4 ml/l Tergitol 8, 24 h)?
**A.** gray

**Q.** And the intensity of coloration ([2]; 4 ml/l Tergitol 8, 24 h)?
**A.** 2.5

**Q.** And the color ([2]; 4 ml/l Tergitol 8, 48 h)?
**A.** gray

**Q.** And the intensity of coloration ([2]; 4 ml/l Tergitol 8, 48 h)?
**A.** 3

**Q.** What about the color ([2]; 8 ml/l Tergitol 8, 24 h) of the same compound?
**A.** gray

**Q.** And the intensity of coloration ([2]; 8 ml/l Tergitol 8, 24 h)?
**A.** 3

**Q.** What about the color ([2]; 8 ml/l Tergitol 8, 48 h) of the same compound?
**A.** gray

**Q.** And the intensity of coloration ([2]; 8 ml/l Tergitol 8, 48 h)?
**A.** 3.5

**Q.** What about the color [3] of the same compound?
**A.** gray

**Q.** And the intensity of coloration [3]?
**A.** 1 and 1.5 and 2

**Q.** And the color ([4]; 2 ml/l Tergitol 8, 24 h)?
**A.** gray

**Q.** What about the intensity of coloration ([4]; 2 ml/l Tergitol 8, 24 h) of the same compound?
**A.** 2

**Q.** What about the color ([4]; 2 ml/l Tergitol 8, 48 h) of the same compound?
**A.** gray

**Q.** And the intensity of coloration ([4]; 2 ml/l Tergitol 8, 48 h)?
**A.** 4

**Q.** What about the color ([4]; 4 ml/l Tergitol 8, 24 h) of the same compound?
**A.** gray

**Q.** What about the intensity of coloration ([4]; 4 ml/l Tergitol 8, 24 h) of the same compound?
**A.** 2

**Q.** What about the color ([4]; 4 ml/l Tergitol 8, 48 h) of the same compound?
**A.** gray

**Q.** And the intensity of coloration ([4]; 4 ml/l Tergitol 8, 48 h)?
**A.** 2.5

**Q.** And the color ([4]; 8 ml/l Tergitol 8, 24 h)?
**A.** gray

**Q.** What about the intensity of coloration ([4]; 8 ml/l Tergitol 8, 24 h) of the same compound?
**A.** 2

**Q.** What about the color ([4]; 8 ml/l Tergitol 8, 48 h) of the same compound?
**A.** gray

**Q.** What about the intensity of coloration ([4]; 8 ml/l Tergitol 8, 48 h) of the same compound?
**A.** 2.5

**Q.** What about the color ([5]; 2 ml/l Tergitol 8, 24 h) of the same compound?
**A.** —

**Q.** What about the color ([5]; 2 ml/l Tergitol 8, 48 h) of the same compound?
**A.** —

**Q.** What about the color ([5]; 4 ml/l Tergitol 8, 24 h) of the same compound?
**A.** —

**Q.** What about the color ([5]; 4 ml/l Tergitol 8, 48 h) of the same compound?
**A.** —

**Q.** What about the color ([5]; 8 ml/l Tergitol 8, 24 h) of the same compound?
**A.** —

**Q.** What about the color ([5]; 8 ml/l Tergitol 8, 48 h) of the same compound?
**A.** —

**Q.** And the color ([6]; 2 ml/l Tergitol 8, 24 h)?
**A.** —

**Q.** What about the color ([6]; 2 ml/l Tergitol 8, 48 h) of the same compound?
**A.** —

**Q.** What about the color ([6]; 4 ml/l Tergitol 8, 24 h) of the same compound?
**A.** —

**Q.** What about the color ([6]; 4 ml/l Tergitol 8, 48 h) of the same compound?
**A.** —

**Q.** And the color ([6]; 8 ml/l Tergitol 8, 24 h)?
**A.** —

**Q.** What about the color ([6]; 8 ml/l Tergitol 8, 48 h) of the same compound?
**A.** —

**Q.** What about the “effect on the esterase activity compared with Tergitol 4” value [7] of the same compound?
**A.** not as pronounced as that observed with Tergitol 4

**Q.** What does the source list for “polyethylene glycol mono-p-isooctylphenyl ether [Triton X100]”?
**A.** color ([1]; 8 ml/l Triton X100, 24 h): gray; intensity of coloration ([1]; 8 ml/l Triton X100, 24 h): 1; color ([1]; 8 ml/l Triton X100, 48 h): gray; intensity of coloration ([1]; 8 ml/l Triton X100, 48 h): 3; color ([1]; 16 ml/l Triton X100, 24 h): gray; intensity of coloration ([1]; 16 ml/l Triton X100, 24 h): 0.5; color ([1]; 16 ml/l Triton X100, 48 h): gray; intensity of coloration ([1]; 16 ml/l Triton X100, 48 h): 2; color ([1]; 32 ml/l Triton X100, 24 h): —; color ([1]; 32 ml/l Triton X100, 48 h): gray; intensity of coloration ([1]; 32 ml/l Triton X100, 48 h): 0.5; color ([2]; 8 ml/l Triton X100, 24 h): gray; intensity of coloration ([2]; 8 ml/l Triton X100, 24 h): 2; color ([2]; 8 ml/l Triton X100, 48 h): gray; intensity of coloration ([2]; 8 ml/l Triton X100, 48 h): 2.5; color ([2]; 16 ml/l Triton X100, 24 h): gray; intensity of coloration ([2]; 16 ml/l Triton X100, 24 h): 2; color ([2]; 16 ml/l Triton X100, 48 h): gray; intensity of coloration ([2]; 16 ml/l Triton X100, 48 h): 2.5; color ([2]; 32 ml/l Triton X100, 24 h): gray; intensity of coloration ([2]; 32 ml/l Triton X100, 24 h): 1; color ([2]; 32 ml/l Triton X100, 48 h): gray; intensity of coloration ([2]; 32 ml/l Triton X100, 48 h): 1.5; color ([3]; 8 ml/l Triton X100, 24 h): gray; intensity of coloration ([3]; 8 ml/l Triton X100, 24 h): 1; color ([3]; 8 ml/l Triton X100, 48 h): gray; intensity of coloration ([3]; 8 ml/l Triton X100, 48 h): 1; color ([3]; 16 ml/l Triton X100, 24 h): gray; intensity of coloration ([3]; 16 ml/l Triton X100, 24 h): 1; color ([3]; 16 ml/l Triton X100, 48 h): gray; intensity of coloration ([3]; 16 ml/l Triton X100, 48 h): 1; color ([3]; 32 ml/l Triton X100, 24 h): gray; intensity of coloration ([3]; 32 ml/l Triton X100, 24 h): 0.5; color ([3]; 32 ml/l Triton X100, 48 h): gray; intensity of coloration ([3]; 32 ml/l Triton X100, 48 h): 0.5; color ([4]; 8 ml/l Triton X100, 24 h): gray; intensity of coloration ([4]; 8 ml/l Triton X100, 24 h): 2; color ([4]; 8 ml/l Triton X100, 48 h): gray; intensity of coloration ([4]; 8 ml/l Triton X100, 48 h): 2.5; color ([4]; 16 ml/l Triton X100, 24 h): gray; intensity of coloration ([4]; 16 ml/l Triton X100, 24 h): 2; color ([4]; 16 ml/l Triton X100, 48 h): gray; intensity of coloration ([4]; 16 ml/l Triton X100, 48 h): 2.5; color ([4]; 32 ml/l Triton X100, 24 h): gray; intensity of coloration ([4]; 32 ml/l Triton X100, 24 h): 1; color ([4]; 32 ml/l Triton X100, 48 h): gray; intensity of coloration ([4]; 32 ml/l Triton X100, 48 h): 2; color ([5]; 8 ml/l Triton X100, 24 h): —; color ([5]; 8 ml/l Triton X100, 48 h): —; color ([5]; 16 ml/l Triton X100, 24 h): —; color ([5]; 16 ml/l Triton X100, 48 h): —; color ([5]; 32 ml/l Triton X100, 24 h): —; color ([5]; 32 ml/l Triton X100, 48 h): —; color ([6]; 8 ml/l Triton X100, 24 h): —; color ([6]; 8 ml/l Triton X100, 48 h): —; color ([6]; 16 ml/l Triton X100, 24 h): —; color ([6]; 16 ml/l Triton X100, 48 h): —; color ([6]; 32 ml/l Triton X100, 24 h): —; color ([6]; 32 ml/l Triton X100, 48 h): —; effect on the esterase activity compared with Tergitol 4 [7]: not as pronounced as that observed with Tergitol 4

Source: patent US7235379B2, “Method and medium for the detection/identification of microorgranisms with esterase activity” (Bio Merieux, priority 2000, dated 2007)
